Reference: US20220323385A1, “PHARMACEUTICAL COMPOSITION FOR AORTIC ANEURYSM PROPHYLAXIS AND PROCESSED FOOD” (priority 2019, published 2022)

Test system: abdominal aortic aneurysm
Assay: rat abdominal aortic aneurysm induction model (catheter inserted in abdominal aorta and ligated, high-fat feed)
Assay type: in vivo, SD-male rats
Settings: for Occurrence not confirmed (abdominal aortic aneurysm) / Occurrence confirmed (abdominal aortic aneurysm): number of rats; for Rupture rate (%) of abdominal aortic aneurysm: rats with observed abdominal aortic aneurysms; for Rupture rate (%) of abdominal aortic aneurysm / Frequency of occurrence (%) (Table 4, Rupture rate of abdominal aortic aneurysm): control group 28.6%; for survival rate (%): Example 2, FIG. 1; for diameter of the aorta in the abdominal aortic aneurysm induction part: Example 2, FIG. 2, control group about 4 mm; for Occurrence not confirmed (Table 4, Rupture rate of abdominal aortic aneurysm): rupture not observed; for Frequency of occurrence (%) (Table 4, Rupture rate of abdominal aortic aneurysm): rupture rate in rats with observed abdominal aortic aneurysms
Protocol: SD-male rats of 4 weeks old (70 g to 90 g) were used. Eighteen rats and eight rats were prepared as a control group and a medium chain fatty acid administration group, respectively.
Upon arrival, all rats were preliminarily fed normal feed without additional supplements for one week. Then, the medium chain fatty acid administration group was fed normal feed and forcibly administered with high-content neutral fats (decanoic acid occupied 98% of constituent fatty acids) in an amount of 1,145 mg/kg body-weight/day. The control group was fed normal feed and forcibly administered with water in an amount of 1,145 mg/kg body-weight/day.
In this test, the medium chain fatty acid was fed in the form of tricaprin. Tricaprin is a substance in which decanoic acid (C10), a linear saturated fatty acid having 10 carbon atoms, is bonded to glycerol.
From the second week after the arrival, all rats were fed high-fat feed. Then, the medium chain fatty acid administration group was forcibly administered with the high-content neutral fats in an amount of 1,145 mg/kg body-weight/day. Furthermore, the control group was forcibly administered with water in an amount of 1,145 mg/kg body-weight/day.
Three weeks after the arrival, an abdominal aortic aneurysm induction treatment was performed. In the abdominal aortic aneurysm induction treatment, a catheter is inserted in the rat abdominal aorta and the inserted catheter is ligated with the abdominal aorta. The treatment was performed according to the method disclosed in Patent Literature 3.
After that, for the next four weeks, the control group had been fed the high-fat feed and forcibly administered with water in an amount of 1,145 mg/kg body-weight/day. Furthermore, the medium chain fatty acid administration group had been fed the high-fat feed and forcibly administered with the high-content neutral fats. Then, four weeks after the abdominal aortic aneurysm induction treatment, the rats were euthanized and dissected.
Note that the abdominal aortic aneurysm was determined to have occurred if the blood vessel at the site where the abdominal aortic aneurysm induction treatment was performed dilated to twice or more its original thickness.
Next, test results obtained by using tricaprin (an ester of three decanoic acids and glycerol) and tricaprylin (an ester of three octanoic acids of C8 and glycerol) as the medium chain fatty acid is shown. The animal model preparation method is the same as that in Example 1. A group in which tricaprin (C10) was given is referred to as a tricaprin administration group and a group in which tricaprylin (C8) was given is referred to as a tricaprylin administration group.
Twenty-three, eleven, and eighteen model animals were prepared as a control group, the tricaprylin administration group, and the tricaprin administration group, respectively.
The horizontal axis indicates the number of days (day) from Day 0 when the abdominal aortic aneurysm induction treatment was performed, and the vertical axis indicates the survival rate (%). The survival rate declined on Day 17 in the control, while the survival rate remained 100% until Day 26 in the tricaprylin administration group. […] The tricaprin administration group maintained the 100% survival rate during the test period.
Referring to FIG. 2, the horizontal axis indicates which measurements are from the normal blood vessel and which are from the blood vessel at the abdominal aortic aneurysm induction part; the vertical axis indicates the diameter (mm) of the aorta. The normal blood vessel refers to the normal aorta at the upper and lower sides of the part in which the abdominal aortic aneurysm was induced.

[1] = Example 1, number of rats among rats with observed abdominal aortic aneurysms
[2] = Example 2, number of rats among rats with observed abdominal aortic aneurysms
[3] = Example 2, 11 rats tricaprylin group, 18 rats tricaprin group

| SMILES | Frequency of occurrence (%) of abdominal aortic aneurysm (Example 1, 1,145 mg/kg body-weight/day, four weeks after induction treatment, control group 38.9%) [%] | Rapture confirmed (abdominal aortic aneurysm) [1] | Rapture not confirmed (abdominal aortic aneurysm) [1] | Occurrence not confirmed (abdominal aortic aneurysm) (Example 1, 8 rats in group, 1,145 mg/kg body-weight/day forcibly administered, four weeks after induction treatment) | Occurrence confirmed (abdominal aortic aneurysm) (Example 1, 8 rats in group, vessel dilated to twice or more its original thickness, 1,145 mg/kg body-weight/day) | Rupture rate (%) of abdominal aortic aneurysm (Example 1, listed as Medium chain fatty acid) [%] | Rupture rate (%) of abdominal aortic aneurysm (Example 1, listed as medium chain fatty acid) [%] | survival rate (%) (during the test period) | diameter of the aorta in the abdominal aortic aneurysm induction part | Frequency of occurrence (%) of abdominal aortic aneurysm (Example 2, control group 30.4%) [%] | Occurrence confirmed (Table 4, Rupture rate of abdominal aortic aneurysm) [2] | Occurrence not confirmed (Table 4, Rupture rate of abdominal aortic aneurysm) [2] | Occurrence confirmed (abdominal aortic aneurysm) [3] | Occurrence not confirmed (abdominal aortic aneurysm) [3] | Frequency of occurrence (%) (Table 4, Rupture rate of abdominal aortic aneurysm) (Example 2) | Frequency of occurrence (%) (Table 4, Rupture rate of abdominal aortic aneurysm) (Example 2, listed as tricaprin) | survival rate (%) (until Day 26 after induction treatment, control declined on Day 17) |
| --- | --- | --- | --- | --- | --- | --- | --- | --- | --- | --- | --- | --- | --- | --- | --- | --- | --- |
| CCCCCCCCCC(=O)OCC(COC(=O)CCCCCCCCC)OC(=O)CCCCCCCCC [Tricaprin] | 12.5 | 0 | 1 | 7 | 1 | 0 | 0.0 | 100 | about 2.2 mm | 5.6 | 0 | 1 | 1 | 17 | 0 | 0.0 | – |
| CCCCCCCC(=O)OCC(COC(=O)CCCCCCC)OC(=O)CCCCCCC [Tricaprylin] | – | – | – | – | – | – | – | – | about 3.5 mm | 27.3 | 1 | 2 | 3 | 8 | 33.3 | – | 100 |
